Measured values: patent US11628146B2, “Estrogen receptor ligand treatment for neurodegenerative diseases” (The Regents of the University of California, priority 2014, dated 2023)
“Also recorded” adds a separate entry of the source.

Columns and labels:
[1] = tested on: EAE in C57BL/6 mice; test: Standard EAE clinical score (0-5 scale), MOG 35-55 induced EAE, C57BL/6 mice; assay type: in vivo, mouse; design: key to Standard EAE Score: n.s. = not significant; *p < 0.05; ***p = 0.0004; ****p < 0.0001; n.i. = not informative; settings: for Standard EAE Score: significance vs vehicle; for Standard EAE clinical score: vs miglyol vehicle
Excerpt: (§1) Animals. C57BL/6 and NOD mice 8 weeks old were purchased from Jackson Laboratories (Bar Harbor, Me.). Animals were maintained under environmentally controlled conditions in a 12-hour light/dark cycle with access to food and water ad libitum. All procedures were done in accordance with the guidelines of the National Institutes of Health and the Chancellor's Animal Research Committee of the University of California, Los Angeles Office for the Protection of Research Subjects.
(§2) Reagents. AC-186 was dissolved in either Miglyol 812N liquid oil (Sasol North America) or sesame oil (Sigma Aldrich) as following concentration; 1.5 mg/mL for 3 mg/kg group, 5 mg/mL for 10 mg/kg group, and 15 mg/mL for 30 mg/kg group. Diarylpropionitrile (DPN, Tocris Biosciences) was dissolved in 10% molecular-grade ethanol and diluted with 90% of either Miglyol 812N liquid oil or sesame oil.
(§3) EAE and Treatments. Animals were injected subcutaneously with Myelin Oligodendrocyte Glycoprotein (MOG), amino acids 35-55 (200 μg/animal, American Peptides), emulsified in complete Freund's adjuvant (CFA) and supplemented with Mycobacterium tuberculosis H37ra (300 μg/animal, Difco Laboratories), over two sites drained by left inguinal and auxiliary lymph nodes in a total volume of 0.1 ml/mouse. One week later, a booster immunization was delivered over contra lateral lymph nodes. Pertussis toxin (500 ng/mouse) (List Biological Laboratories, Inc.) was injected intraperitoneally on days 0 and 2. Animals were monitored daily for EAE signs based on a standard EAE 0-5 scale scoring system: 0—healthy, 1—complete loss of tail tonicity, 2—loss of righting reflex, 3—partial paralysis, 4—complete paralysis of one or both hind limbs, and 5—moribund. Animals received 0.05 ml of either of 1.5, 5, 15 mg/mL AC-186, vehicle (sesame oil or Miglyol 812N liquid oil), or DPN (8 mg/kg/day) via subcutaneous injections every other day. Animals were treated with AC-186 or vehicle after EAE induction. Specifically, treatment was initiated at the first clear signs of clinical disease (EAE day 13-15), and continued to the endpoint of the experiment.

[2] = tested on: EAE in NOD mice; test: Standard EAE clinical score (0-5 scale), MOG-induced EAE, NOD mice; assay type: in vivo, mouse; design: key to Standard EAE Score: n.s. = not significant; *p < 0.05; ***p = 0.0004; ****p < 0.0001; n.i. = not informative; settings: for Standard EAE Score: significance vs vehicle
Excerpt: as §1, §2, §3

Oc1ccc(C2(c3ccccc3F)CCC(F)(F)CC2)cc1 [AC-186]
Standard EAE Score ([1]; C57BL/6 F, AC186 3 mg/kg, sesame vehicle): n.s. | Standard EAE Score ([1]; C57BL/6 F, AC186 10 mg/kg, miglylol vehicle): **** (less robust that 30 mg/kg) (****p < 0.0001) | Standard EAE Score ([1]; C57BL/6 F, AC186 10 mg/kg, sesame vehicle): n.s. | Standard EAE Score ([1]; C57BL/6 F, AC186 30 mg/kg, miglylol vehicle): **** (****p < 0.0001) | Standard EAE Score ([1]; C57BL/6 F, AC186 30 mg/kg, sesame vehicle): * (*p < 0.05) | Standard EAE Score ([1]; C57BL/6 M, AC186 30 mg/kg, miglylol vehicle): **** (****p < 0.0001) | Standard EAE Score ([1]; C57BL/6 M, AC186 30 mg/kg, sesame vehicle): n.s. | EAE score ([1]; female C57BL/6, 3 mg/kg s.c. every other day in sesame oil, vs vehicle): no effect on the EAE score | Standard EAE clinical score ([1]; female C57BL/6, 10 mg/kg in miglyol): significant efficacy in ameliorating the standard EAE clinical scores; also recorded: ameliorated | EAE score ([1]; female C57BL/6, 10 mg/kg s.c. every other day in sesame oil, vs vehicle): a trend toward improvement | Standard EAE clinical score ([1]; female C57BL/6, 30 mg/kg in miglyol): significant efficacy in ameliorating the standard EAE clinical scores; also recorded: beneficial effects; also recorded: ameliorated | EAE score ([1]; female C57BL/6, 30 mg/kg s.c. every other day in sesame oil, from first clinical signs, vs vehicle): a significant effect in ameliorating standard EAE clinical scores; also recorded: displayed the best EAE score; also recorded: significantly less severe EAE scores | EAE score ([1]; male C57BL/6, 30 mg/kg in miglyol, vs miglyol alone): performed significantly better; also recorded: better EAE scores | EAE score ([1]; male C57BL/6, 30 mg/kg in sesame oil, vs sesame oil alone): did not perform significantly better; also recorded: did not display efficacy | Standard EAE Score ([2]; NOD F, AC186 10 mg/kg, miglylol vehicle): **** (****p < 0.0001) | Standard EAE Score ([2]; NOD F, AC186 30 mg/kg, miglylol vehicle): **** (****p < 0.0001) | Standard EAE Score ([2]; NOD F, AC186 30 mg/kg, sesame vehicle): n.s. | Standard EAE Score ([2]; NOD M, AC186 10 mg/kg, miglylol vehicle): n.s. | Standard EAE Score ([2]; NOD M, AC186 30 mg/kg, miglylol vehicle): **** (****p < 0.0001) | EAE score ([2]; NOD females, 10 mg/kg in miglyol, vs vehicle, 10 mg/kg): improved EAE scores; also recorded: better EAE scores | EAE score ([2]; NOD females, 30 mg/kg in miglyol, vs vehicle, 30 mg/kg): improved EAE scores; also recorded: better EAE scores | EAE score ([2]; NOD females, high dose AC-186 in sesame oil carrier): did not ameliorate EAE scores; also recorded: no protection was observed | EAE score ([2]; NOD males, 10 mg/kg in miglyol, vs vehicle): not | EAE score ([2]; NOD males, 30 mg/kg in miglyol, vs vehicle, 30 mg/kg): improved EAE scores; also recorded: ameliorated
